Assay results reported in patent publication US10407437B2, “Camptothecin derivatives and uses thereof” (Los Gatos Pharmaceuticals, Inc., priority 2016, dated 2019).
pIC50: −log10 of the molar value. Like-named read-outs stand apart in the source and are kept apart here.

Experiments:
HT29 cells = experiment: Anti-proliferative activity, AlamarBlue assay, HT29 cells; format: cell-based, human; details: for % inhibition compared to SN38 / inhibition at 33.3 µM: HT29 cells; for % inhibition compared to SN38: highest concentration tested, 100 μM; for pIC50: HT29 human colorectal adenocarcinoma cells, 48-72 hours with compound, AlamarBlue, sigmoidal logistic regression curve, read-out: IC50 of anti-proliferative drugs in HT29 cells; for inhibition at 33.3 µM: Homo sapiens
Protocol: (§1) Human colorectal adenocarcinoma cell lines HT29 and SW620, as well as murine colon carcinoma cell line CT26, were purchased from the American Type Culture Collection (ATCC) and grown in either Dulbecco's Modified Eagle Medium (DMEM) or Roswell Park Memorial Institute (RPMI) medium from Corning and Life Technologies, respectively. These media were supplemented with 10% fetal bovine serum (FBS, Atlanta Biologicals), as well as 1 mM sodium pyruvate (Corning) and 10 mM HEPES (Fisher) for CT26 cells. Cells were grown in Corning 75 cm^2 flasks and split approximately 6 days before plating, with a refeed of fresh media the day prior to plating. Anti-proliferative drugs 2, 3 and SN38, were reconstituted in DMSO for storage at −20° C. until use. AlamarBlue, a colorimetric cell metabolism reagent, was purchased from Life Technologies.
To qualify AlamarBlue incubation time and required cell density, cells were plated into flat bottom 96 well plates (Techno Plastic Products, Trasadingen, Switzerland) at plating densities from 4×10^4 to 1.25×10^3 cells per well. The cells were incubated at 37° C. inside a Nu-Aire TS Autoflow incubator with 5% CO2 and humidity for 48-72 hours, AlamarBlue reagent was then added to all wells, equivalent to 10% of the culture volume or 20 μL. The plates were returned to the 37° C. incubator, and the absorbance at 570 and 600 nm were assessed using a Bio-Tek Epoch microplate reader at 1, 2, 4, 7 and in some experiment 24 hours post addition of AlamarBlue. Once the optimum cell density and incubation time was determined for each cell line, testing of the anti-proliferative drugs on the cells was initiated. For each cell line, cells were plated at 5×10^3 cells per well and incubated at 37° C. for 24 hours, at which time the anti-proliferative compounds were added. […] Aliquots of anti-proliferatives were thawed, diluted in media appropriate for each cell line, and serially diluted 1:3. A serial pipetter, was used to deliver 100 μl of each concentration of anti-proliferative compound to the appropriate wells in triplicate, the plate was tapped gently to mix, and then incubated at 37° C. for 48-72 hours. Control wells containing media alone and media with an equal percentage of DMSO in comparison to the initial anti-proliferative dilution were also established in each plate. After a minimum of 48 hours of incubation, 20 μl of AlamarBlue was added to each experimental well as well as the negative control wells. AlamarBlue positive control wells, containing 200 μl of 100% reduced AlamarBlue, were also established to provide a colorimetric endpoint reference for the assay. After addition of AlamarBlue, plates were incubated for 4 hours at 37° C. and absorbance assessed using the Epoch microplate reader. Absorbances were used to calculate the % inhibition for each well using the following equation, where O1 is the molar extinction coefficient of oxidized AlamarBlue at 570 nm (80586), O2 is the molar extinction coefficient of oxidized AlamarBlue at 600 nm (117216), A1 is the absorbance of the test wells at 570 nm, A2 is the absorbance of the test wells at 600 nm, P1 is the absorbance of the control wells with AlamarBlue but without test agent at 570, and P2 is the absorbance of the control wells with AlamarBlue but without the test agent at 600. % difference between=(O2×A1)−(O1×A2)×100treated and untreated cells (O2×P1)−(O1×P2)
(§2) The dose response data generated by these values was used to calculate the half maximal inhibitory concentration (IC50) using a regression curve (3 or 4 parameter logistic sigmoidal curve or sigmoidal sigmoid curve) in Sigma Plot, version 12.5. Statistical differences were calculated using SPSS Statistics software, version 17.0, using the independent t-test with an α of 0.05. […]

CT26 cells = experiment: Anti-proliferative activity, AlamarBlue assay, CT26 cells; format: cell-based; details: CT26 murine colon carcinoma cells, 48-72 hours with compound, 4 parameter regression curve, read-out: IC50 of anti-proliferative drugs in CT26 cells
Protocol: as §1
To qualify AlamarBlue incubation time and required cell density, cells were plated into flat bottom 96 well plates (Techno Plastic Products, Trasadingen, Switzerland) at plating densities from 4×10^4 to 1.25×10^3 cells per well. […] The plates were returned to the 37° C. incubator, and the absorbance at 570 and 600 nm were assessed using a Bio-Tek Epoch microplate reader at 1, 2, 4, 7 and in some experiment 24 hours post addition of AlamarBlue. Once the optimum cell density and incubation time was determined for each cell line, testing of the anti-proliferative drugs on the cells was initiated. […] After addition of AlamarBlue, plates were incubated for 4 hours at 37° C. and absorbance assessed using the Epoch microplate reader. […]
as §2

SW620 cells = experiment: Anti-proliferative activity, AlamarBlue assay, SW620 cells; format: cell-based, human; details: for pIC50: SW620 human colorectal adenocarcinoma cells, 48-72 hours with compound, AlamarBlue, sigmoidal regression curve, read-out: IC50 of anti-proliferative drugs in SW620 cells
Protocol: as §1
To qualify AlamarBlue incubation time and required cell density, cells were plated into flat bottom 96 well plates (Techno Plastic Products, Trasadingen, Switzerland) at plating densities from 4×10^4 to 1.25×10^3 cells per well. The cells were incubated at 37° C. inside a Nu-Aire TS Autoflow incubator with 5% CO2 and humidity for 48-72 hours, AlamarBlue reagent was then added to all wells, equivalent to 10% of the culture volume or 20 μL. The plates were returned to the 37° C. incubator, and the absorbance at 570 and 600 nm were assessed using a Bio-Tek Epoch microplate reader at 1, 2, 4, 7 and in some experiment 24 hours post addition of AlamarBlue. Once the optimum cell density and incubation time was determined for each cell line, testing of the anti-proliferative drugs on the cells was initiated. […] After addition of AlamarBlue, plates were incubated for 4 hours at 37° C. and absorbance assessed using the Epoch microplate reader. Absorbances were used to calculate the % inhibition for each well using the following equation, where O1 is the molar extinction coefficient of oxidized AlamarBlue at 570 nm (80586), O2 is the molar extinction coefficient of oxidized AlamarBlue at 600 nm (117216), A1 is the absorbance of the test wells at 570 nm, A2 is the absorbance of the test wells at 600 nm, P1 is the absorbance of the control wells with AlamarBlue but without test agent at 570, and P2 is the absorbance of the control wells with AlamarBlue but without the test agent at 600. % difference between=(O2×A1)−(O1×A2)×100treated and untreated cells (O2×P1)−(O1×P2)
as §2

| SMILES | % inhibition compared to SN38 (HT29 cells) | pIC50 (HT29 cells; HT-29) | inhibition at 33.3 µM (HT29 cells; HT-29) [%] | pIC50 (CT26 cells; Mus musculus) | pIC50 (SW620 cells; SW-620) | pIC50 (HT29 cells) | pIC50 (CT26 cells) | % inhibition (SW620 cells; SW620 cells, throughout all concentrations tested (100 μM to 0.4 μM)) | pIC50 (SW620 cells) |
| --- | --- | --- | --- | --- | --- | --- | --- | --- | --- |
| CCCCC(=O)O[C@]1(CC)C(=O)OCc2c1cc1n(c2=O)Cc2c-1nc1ccc(O)cc1c2CC [Compound 2] | not significantly different from SN38 | 5.25 | > 54 | 4.74 | 5.72 |  |  |  |  |
| CCCCCCCCCCCCCC(=O)O[C@]1(CC)C(=O)OCc2c1cc1n(c2=O)Cc2c-1nc1ccc(O)cc1c2CC [Compound 3] | not significantly different from SN38 | 4.77 | > 54 | 4.85 | 4.99 |  |  |  |  |
| CCc1c2c(nc3ccc(O)cc13)-c1cc3c(c(=O)n1C2)COC(=O)[C@]3(O)CC [SN38, reference compound] |  |  |  |  |  | 6.70 | 6.22 | over 55% | 6.15 |
